The numbers were not newly measured in patent publication US9303066B2 (priority 2011, dated 2016), which cites them from elsewhere.

Positions of bridges follow the written chain, without caps; N, C: chain ends. Residues, ends and D or L forms follow the SMILES beside them. No end group written: not given here.

Series [1] has as its target T1, GC-C (Homo sapiens, UniProt P25092). To be noted: cultured GC-C-expressing cells.
In series [2] the target is T1, GC-C. Further details: from tissue; host or cells: intestinal epithelium (luminal surface) in vivo. The following applies: in vivo, po.
The conditions of series [3]: in vivo, po.
The conditions of series [4]: 37° C.

T1 sequence (P25092 24-1073, species assumed): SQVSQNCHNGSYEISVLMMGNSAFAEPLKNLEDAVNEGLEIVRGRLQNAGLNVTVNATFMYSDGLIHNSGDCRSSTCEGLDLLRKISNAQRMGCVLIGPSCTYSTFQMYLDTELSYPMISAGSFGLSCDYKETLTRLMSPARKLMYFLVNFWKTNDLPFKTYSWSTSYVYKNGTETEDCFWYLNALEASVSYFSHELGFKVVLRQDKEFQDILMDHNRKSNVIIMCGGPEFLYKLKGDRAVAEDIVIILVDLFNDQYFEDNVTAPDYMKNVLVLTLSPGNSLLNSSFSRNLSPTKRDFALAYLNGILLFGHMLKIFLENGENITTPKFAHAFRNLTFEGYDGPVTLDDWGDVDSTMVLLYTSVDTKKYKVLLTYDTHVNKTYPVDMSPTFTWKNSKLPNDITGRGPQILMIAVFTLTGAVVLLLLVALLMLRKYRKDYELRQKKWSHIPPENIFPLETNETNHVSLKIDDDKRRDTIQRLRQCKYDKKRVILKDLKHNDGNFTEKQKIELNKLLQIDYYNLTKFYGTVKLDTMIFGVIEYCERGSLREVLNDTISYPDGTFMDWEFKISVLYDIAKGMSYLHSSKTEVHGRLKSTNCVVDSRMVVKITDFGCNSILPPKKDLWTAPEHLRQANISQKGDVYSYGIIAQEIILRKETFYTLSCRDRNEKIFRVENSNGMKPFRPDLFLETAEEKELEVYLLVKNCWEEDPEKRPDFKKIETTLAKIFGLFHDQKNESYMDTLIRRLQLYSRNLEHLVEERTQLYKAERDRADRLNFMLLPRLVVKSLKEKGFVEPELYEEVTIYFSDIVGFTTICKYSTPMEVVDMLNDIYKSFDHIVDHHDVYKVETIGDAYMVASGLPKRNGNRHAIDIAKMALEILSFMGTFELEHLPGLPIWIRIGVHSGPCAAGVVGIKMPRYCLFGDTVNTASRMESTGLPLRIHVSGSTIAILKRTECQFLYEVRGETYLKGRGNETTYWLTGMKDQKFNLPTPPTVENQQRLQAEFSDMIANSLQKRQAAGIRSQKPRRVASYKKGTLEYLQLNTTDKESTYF

For the compound “UgnB: B conformational stereoisomer of human uroguanylin, separated by HPLC (NDDCELCVNVACTGCL; disulfide 4-12, 7-15; also: B conformational stereoisomer (HPLC-separated); UniProt Q16661 97-112, looked up)”, in the series with GC-C [1], the “fold less potent than UgnA” value is “more than 100 fold”.

As for `C[C@@H]1NC(=O)[C@@H]2CCCN2C(=O)[C@H](CC(N)=O)NC(=O)[C@@H]2CSSC[C@H](N)C(=O)N[C@H]3CSSC[C@H](NC1=O)C(=O)N[C@@H]([C@@H](C)O)C(=O)NCC(=O)N[C@H](C(=O)N[C@@H](Cc1ccc(O)cc1)C(=O)O)CSSC[C@H](NC(=O)[C@H](Cc1ccc(O)cc1)NC(=O)[C@H](CCC(=O)O)NC3=O)C(=O)N2` [Linaclotide] (H-CCEYCCNPACTGCY-OH; disulfide 1-6, 2-10, 5-13), on GC-C [2], the GI transit entry was “increased GI transit”, the bloating entry is given as “reduced bloating” and the visceral pain entry is reported as “reduced visceral pain”. Further, the levels seen systemically in series [3] is “no detectable levels”.

With “NDDCELCVNVACTGCL (cysteine pairing not given here) [human Ugn]”, the “half-life of each form (A and B conformation)” value in series [4] is “about 2 days”.
